In ChEMBL document CHEMBL1201862, “PubChem BioAssay data set” (2004):
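Five compound concentrations were applied to cells in 96-well plates for 48 hours; endpoints were derived by simple linear interpolation of the resulting dose-response curve. At the GI50, growth is halved.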 The source made the active and inactive calls. Cut-off read from the data, not from the text of the source: active = GI50 up to about 1.1 µM and inactive = higher.

Key:
Assay in all cases: growth of human tumour cells (NCI), 48 h
Hs-578T = system: Hs-578T
MDA-MB-231 = system: MDA-MB-231
RXF 393 = system: RXF 393
OVCAR-3 = system: OVCAR-3
LOX IMVI = system: LOX IMVI
CAKI-1 = system: CAKI-1
TK-10 = system: TK-10
M14 = system: M14
NCI-H23 = system: NCI-H23
HCT-116 = system: HCT-116
COLO 205 = system: COLO 205
SR = system: SR
MDA-MB-435 = system: MDA-MB-435
HOP-92 = system: HOP-92
SNB-19 = system: SNB-19
UACC-62 = system: UACC-62
IGROV-1 = system: IGROV-1
SK-MEL-2 = system: SK-MEL-2
OVCAR-5 = system: OVCAR-5
PC-3 = system: PC-3

Compound | GI50 (Hs-578T) | GI50 (MDA-MB-231) | GI50 (RXF 393) | GI50 (OVCAR-3) | GI50 (LOX IMVI) | GI50 (CAKI-1) | GI50 (TK-10) | GI50 (M14) | GI50 (NCI-H23) | GI50 (HCT-116) | GI50 (COLO 205) | GI50 (SR) | GI50 (MDA-MB-435) | GI50 (HOP-92) | GI50 (SNB-19) | GI50 (UACC-62) | GI50 (IGROV-1) | GI50 (SK-MEL-2) | GI50 (OVCAR-5) | GI50 (PC-3)
N#CC1(C#N)C2C=CC(C3CCC=C32)C1(C#N)C#N (stereo not drawn) | > 10 µM (inactive) | > 10 µM (inactive) | > 10 µM (inactive) | > 10 µM (inactive) | > 10 µM (inactive) | 6.37 µM (inactive) | > 5.7 µM (inactive) | 5.79 µM (inactive) | > 10 µM (inactive) | > 6.56 µM (inactive) | 1.94 µM (inactive) | 7.4 µM (inactive) | > 10 µM (inactive) | > 10 µM (inactive) | > 10 µM (inactive) | > 10 µM (inactive) | > 10 µM (inactive) | > 10 µM (inactive) | > 10 µM (inactive) | > 10 µM (inactive)
COc1cc(/C=C2\N=C(c3ccccc3)N(c3nc4c(OC)ccc(OC)c4s3)C2=O)ccc1O | 48.8 µM (inactive) | 45.7 µM (inactive) | 11.1 µM (inactive) | 37.1 µM (inactive) | 24 µM (inactive) | > 100 µM (inactive) | 58.1 µM (inactive) | 88.5 µM (inactive) | > 100 µM (inactive) | 95.9 µM (inactive) | 96.8 µM (inactive) | 30 µM (inactive) | 20.1 µM (inactive) | 35.6 µM (inactive) | > 100 µM (inactive) | 33 µM (inactive) | 46.8 µM (inactive) | 35.5 µM (inactive) | > 100 µM (inactive) | 32.4 µM (inactive)
O=C(CC(=O)N1N=C(c2ccccc2)C(/N=N/c2ccc(S(=O)(=O)CCOS(=O)(=O)O)cc2)C1=O)Nc1ccc(Cl)cc1 (stereo not drawn) | 20.6 µM (inactive) | 91.6 µM (inactive) | > 100 µM (inactive) | > 100 µM (inactive) | 84.1 µM (inactive) | > 100 µM (inactive) | > 100 µM (inactive) | 28.1 µM (inactive) | > 100 µM (inactive) | 85.9 µM (inactive) | > 100 µM (inactive) | > 100 µM (inactive) | > 100 µM (inactive) | > 100 µM (inactive) | > 100 µM (inactive) | > 100 µM (inactive) | 8.75 µM (inactive) | > 100 µM (inactive) | > 100 µM (inactive) | > 100 µM (inactive)
CCc1oc2ccccc2c1C(=O)c1cc(Br)c(O)c(Br)c1 [BENZBROMARONE] | 24.5 µM (inactive) | 20.5 µM (inactive) | 15.3 µM (inactive) | 18.2 µM (inactive) | 24.7 µM (inactive) | 36.1 µM (inactive) | 24.7 µM (inactive) | 28.9 µM (inactive) | 24.5 µM (inactive) | 22.4 µM (inactive) | 20.9 µM (inactive) | 23.5 µM (inactive) | 29.7 µM (inactive) | 24.1 µM (inactive) | 36.1 µM (inactive) | 16.9 µM (inactive) | 33.7 µM (inactive) | 19.8 µM (inactive) | 21.4 µM (inactive) | 20 µM (inactive)
Cc1cc(-c2nc3ccc(F)cc3s2)ccc1N | 37.2 µM (inactive) | > 100 µM (inactive) | 49.8 µM (inactive) | > 100 µM (inactive) | > 100 µM (inactive) | > 100 µM (inactive) | < 0.01 µM (active) | > 100 µM (inactive) | > 100 µM (inactive) | > 100 µM (inactive) | > 100 µM (inactive) | > 100 µM (inactive) | > 100 µM (inactive) | > 100 µM (inactive) | > 100 µM (inactive) | 89.1 µM (inactive) | 1.28 µM (inactive) | > 100 µM (inactive) | > 100 µM (inactive) | 63.5 µM (inactive)
O=[N+]([O-])c1ccc(OP(=O)(O)OCC2OC(CP(=O)(O)O)C(O)C2O)cc1 (stereo not drawn) | > 100 µM (inactive) | > 100 µM (inactive) | > 100 µM (inactive) | > 100 µM (inactive) | > 100 µM (inactive) | > 100 µM (inactive) | > 100 µM (inactive) | > 100 µM (inactive) | > 100 µM (inactive) | > 100 µM (inactive) | > 100 µM (inactive) | > 100 µM (inactive) | > 100 µM (inactive) | > 100 µM (inactive) | > 100 µM (inactive) | > 100 µM (inactive) | > 100 µM (inactive) | > 100 µM (inactive) | > 100 µM (inactive) | > 100 µM (inactive)
COC(=O)[C@H](Cc1ccccc1)NC(=O)CCCCCCC(=O)NO | 12.6 µM (inactive) | 21.6 µM (inactive) | 5.05 µM (inactive) | 10.7 µM (inactive) | 15.4 µM (inactive) | 28.3 µM (inactive) | 13.8 µM (inactive) | 20.9 µM (inactive) | 26.4 µM (inactive) | 5.15 µM (inactive) | 54.5 µM (inactive) | 4.89 µM (inactive) | 13.5 µM (inactive) | 17.3 µM (inactive) | > 100 µM (inactive) | 11.5 µM (inactive) | 17.7 µM (inactive) | 4.6 µM (inactive) | 4.18 µM (inactive) | 8.79 µM (inactive)
CCC12C=CCN3CCC4(c5cc(C(c6ccc(OC)cc6)C6Cc7ccccc7N6)c(OC)cc5N(C)C4C(O)(C(=O)OC)C1O)C32 (stereo not drawn) | 63.7 µM (inactive) | 16.1 µM (inactive) | 14.3 µM (inactive) | 19.2 µM (inactive) | 14.1 µM (inactive) | 18.7 µM (inactive) | 22.9 µM (inactive) | 24.2 µM (inactive) | 27 µM (inactive) | 14.4 µM (inactive) | 8.36 µM (inactive) | 8.04 µM (inactive) | 12.7 µM (inactive) | 2.81 µM (inactive) | 17.9 µM (inactive) | 11.8 µM (inactive) | 16.9 µM (inactive) | 15.3 µM (inactive) | 36.7 µM (inactive) | 12.6 µM (inactive)
O=c1[nH]nc(-c2ccccc2)n1/N=C/c1ccc([N+](=O)[O-])o1 | 27.2 µM (inactive) | 6.71 µM (inactive) | 0.897 µM (active) | 0.993 µM (active) | 3.34 µM (inactive) | 7.13 µM (inactive) | 52.8 µM (inactive) | 4.14 µM (inactive) | 5.9 µM (inactive) | 1.37 µM (inactive) | 4.15 µM (inactive) | 1.08 µM (active) | 5.2 µM (inactive) | 6.71 µM (inactive) | 12.6 µM (inactive) | 5.21 µM (inactive) | 2.57 µM (inactive) | 5.21 µM (inactive) | 10.4 µM (inactive) | 6.35 µM (inactive)
O=C1NC(=O)C(c2c[nH]c3ccccc23)=C1c1cn(C(c2ccccc2)(c2ccccc2)c2ccccc2)cn1 | 20.8 µM (inactive) | 12.8 µM (inactive) | 4.52 µM (inactive) | 6.76 µM (inactive) | 6.95 µM (inactive) | 35.4 µM (inactive) | 10.7 µM (inactive) | 4.76 µM (inactive) | 6.35 µM (inactive) | 3.34 µM (inactive) | 3.73 µM (inactive) | 2.7 µM (inactive) | 3.92 µM (inactive) | 7.13 µM (inactive) | 11.3 µM (inactive) | 12.5 µM (inactive) | 8.87 µM (inactive) | 11.2 µM (inactive) | 8.73 µM (inactive) | 2.58 µM (inactive)
CC(=O)OC1C(C)OC(OC2C[C@](O)(C(C)=O)Cc3c(O)c4c(c(O)c32)C(=O)c2ccccc2C4=O)C(F)C1OC(C)=O (stereo partly drawn) | 0.476 µM (active) | 1.06 µM (active) | 2.74 µM (inactive) | 2.52 µM (inactive) | 0.156 µM (active) | 0.13 µM (active) | 1.6 µM (inactive) | 0.735 µM (active) | 0.245 µM (active) | 0.318 µM (active) | 1.98 µM (inactive) | 0.101 µM (active) | 2.25 µM (inactive) | 0.457 µM (active) | 0.245 µM (active) | 0.387 µM (active) | 0.243 µM (active) | 3.11 µM (inactive) | 0.916 µM (active) | 0.971 µM (active)
COc1ccc2c(-c3ccc(O)cc3)c(Oc3ccccc3)c(=O)oc2c1 | > 50 µM (inactive) | 18.8 µM (inactive) | 11.8 µM (inactive) | 5.4 µM (inactive) | 8.61 µM (inactive) | 2.72 µM (inactive) | 3.74 µM (inactive) | > 100 µM (inactive) | 2.63 µM (inactive) | > 23.2 µM (inactive) | > 100 µM (inactive) | 3.24 µM (inactive) | > 100 µM (inactive) | 12 µM (inactive) | – | > 24.4 µM (inactive) | 3.78 µM (inactive) | > 100 µM (inactive) | > 24.4 µM (inactive) | > 66.5 µM (inactive)
Cc1ccc([N+](=O)[O-])cc1S(=O)(=O)Nc1ccc(C2=NN(C(=O)c3ccccc3)C(c3ccccc3O)C2)cc1 (stereo not drawn) | 22.8 µM (inactive) | 15.7 µM (inactive) | 12.3 µM (inactive) | 17 µM (inactive) | 18.3 µM (inactive) | 17.6 µM (inactive) | 13.7 µM (inactive) | 16.3 µM (inactive) | 17.1 µM (inactive) | 11.4 µM (inactive) | 14.3 µM (inactive) | 21.2 µM (inactive) | 31.2 µM (inactive) | 12 µM (inactive) | 28.2 µM (inactive) | – | 10.2 µM (inactive) | 16.7 µM (inactive) | 19.7 µM (inactive) | 13.2 µM (inactive)
